Experimental data reported in ChEMBL document CHEMBL6096683, “Novel Orthosteric/Allosteric Ligands of Cannabinoid Receptors: An Unexpected Pharmacological Profile” (J Med Chem, 2025).
Calls of active or inactive are those of the source. No cut-off for these calls is given here.

Columns and labels:
Cannabinoid receptor 2 [1] = target: T1, Cannabinoid receptor 2 (Homo sapiens, UniProt P34972); assay: Positive allosteric modulation at human CB2 receptor expressed in CHO cells assessed as inhibition of forskolin-induced cAMP production incubated for 90 mins in presence of CP55940 ligand by HitHunter assay; format: functional, cell-based
Cannabinoid receptor 1 [2] = target: T2, Cannabinoid receptor 1 (Homo sapiens, UniProt P21554); assay: Positive allosteric modulation at human CB1 receptor expressed in CHO cells assessed as inhibition of forskolin-induced cAMP production incubated for 90 mins in presence of FM6b by HitHunter assay relative to control; format: functional, cell-based; conditions: filed as positive allosteric modulator
Cannabinoid receptor 2 [3] = target: T1, Cannabinoid receptor 2; assay: Displacement of [3H]CP55940 from human CB2 receptor expressed in CHO cell membrane incubated for 2 hrs; format: cell membranes
Cannabinoid receptor 2 [4] = target: T1, Cannabinoid receptor 2; assay: Agonist activity at human CB2 receptor expressed in CHO cells assessed as inhibition of forskolin-induced cAMP production at 0.001 to 10 uM incubated for 90 mins by HitHunter assay; format: functional, cell-based; conditions: dose 0.001-10 µM
Cannabinoid receptor 2 [5] = target: T1, Cannabinoid receptor 2; assay: Positive allosteric modulation at human CB2 receptor expressed in CHO cells assessed as inhibition of forskolin-induced cAMP production incubated for 90 mins in presence of CP55940 ligand by HitHunter assay relative to control; format: functional, cell-based; conditions: filed as positive allosteric modulator
Cannabinoid receptor 1 [6] = target: T2, Cannabinoid receptor 1; assay: Positive allosteric modulation at human CB1 receptor expressed in CHO cells assessed as inhibition of forskolin-induced cAMP production incubated for 90 mins by HitHunter assay; format: functional, cell-based; conditions: filed as positive allosteric modulator
Cannabinoid receptor 2 [7] = target: T1, Cannabinoid receptor 2; assay: Displacement of [3H]CP55940 from human CB2 receptor expressed in CHO cells at 10 uM; format: cell-based; conditions: filed as positive allosteric modulator
Cannabinoid receptor 2 [8] = target: T1, Cannabinoid receptor 2; assay: Positive allosteric modulation at human CB2 receptor expressed in CHO cells assessed as inhibition of forskolin-induced cAMP production incubated for 90 mins in presence of FM6b by HitHunter assay; format: functional, cell-based
HepG2 [9] = assay: Anti-steatosis activity against oleate/palmitate-induced human HepG2 cells assessed as induction of lipolysis at 25 uM incubated for 24 hrs; format: functional, cell-based
Cannabinoid receptor 2 [10] = target: T1, Cannabinoid receptor 2; assay: Displacement of [3H]CP55940 from human CB2 receptor expressed in CHO cells upto 1 uM; format: cell-based
Cannabinoid receptor 1 [11] = target: T2, Cannabinoid receptor 1; assay: Displacement of [3H]CP55940 from human CB1 receptor expressed in CHO cell membrane at 0.001 to 10 uM incubated for 2 hrs relative to control; format: cell membranes; conditions: dose 0.001-10 µM
Cannabinoid receptor 2 [12] = target: T1, Cannabinoid receptor 2; assay: Positive allosteric modulation at human CB2 receptor expressed in CHO cells assessed as inhibition of forskolin-induced cAMP production incubated for 90 mins in presence of FM6b by HitHunter assay relative to control; format: functional, cell-based; conditions: filed as positive allosteric modulator
Cannabinoid receptor 2 [13] = target: T1, Cannabinoid receptor 2; assay: Displacement of [3H]CP55940 from human CB2 receptor expressed in CHO cell membrane at 0.001 to 10 uM incubated for 2 hrs relative to control; format: cell membranes; conditions: dose 0.001-10 µM
HepG2 [14] = assay: Induction of lipid accumulation in human HepG2 cells assessed as increase in lipolysis at 0.1 to 25 uM incubated for 24 hrs by Oil Red O staining based analysis; format: functional, cell-based; conditions: dose 0.1-25 µM
Cannabinoid receptor 1 [15] = target: T2, Cannabinoid receptor 1; assay: Displacement of [3H]CP55940 from human CB1 receptor expressed in CHO cells at 0.001 to 10 uM; format: cell-based; conditions: filed as positive allosteric modulator, dose 0.001-10 µM
Cannabinoid receptor 1 [16] = target: T2, Cannabinoid receptor 1; assay: Agonist activity at human CB1 receptor expressed in CHO cells assessed as inhibition of forskolin-induced cAMP production incubated for 90 mins in presence of GAT211 ligand by HitHunter assay; format: functional, cell-based
Cannabinoid receptor 1 [17] = target: T2, Cannabinoid receptor 1; assay: Agonist activity at human CB1 receptor expressed in CHO cells assessed as inhibition of forskolin-induced cAMP production incubated for 90 mins in presence of CP55940 ligand by HitHunter assay; format: functional, cell-based
Cannabinoid receptor 2 [18] = target: T1, Cannabinoid receptor 2; assay: Agonist activity at human CB2 receptor expressed in CHO cells assessed as inhibition of forskolin-induced cAMP production at 10 uM incubated for 90 mins by HitHunter assay; format: functional, cell-based; conditions: filed as agonist
Cannabinoid receptor 1 [19] = target: T2, Cannabinoid receptor 1; assay: Agonist activity at human CB1 receptor expressed in CHO cells assessed as inhibition of forskolin-induced cAMP production at 100 nM incubated for 90 mins in presence of CP55940 ligand by HitHunter assay relative to control; format: functional, cell-based; conditions: filed as agonist
Cannabinoid receptor 1 [20] = target: T2, Cannabinoid receptor 1; assay: Agonist activity at human CB1 receptor expressed in CHO cells assessed as inhibition of forskolin-induced cAMP production at 100 nM incubated for 90 mins in presence of GAT211 ligand by HitHunter assay relative to control; format: functional, cell-based
Cannabinoid receptor 1 [21] = target: T2, Cannabinoid receptor 1; assay: Agonist activity at human CB1 receptor expressed in CHO cells assessed as inhibition of forskolin-induced cAMP production at 100 nM incubated for 90 mins in presence of FM6b ligand by HitHunter assay relative to control; format: functional, cell-based; conditions: filed as agonist
Cannabinoid receptor 1 [22] = target: T2, Cannabinoid receptor 1; assay: Displacement of [3H]CP55940 from human CB1 receptor expressed in CHO cell membrane incubated for 2 hrs; format: cell membranes
Cannabinoid receptor 1 [23] = target: T2, Cannabinoid receptor 1; assay: Agonist activity at human CB1 receptor expressed in CHO cells assessed as inhibition of forskolin-induced cAMP production incubated for 90 mins in presence of FM6b ligand by HitHunter assay; format: functional, cell-based
HepG2 [24] = assay: Induction of lipid accumulation in human HepG2 cells at 1 uM incubated for 24 hrs by Oil Red O staining based analysis; format: functional, cell-based
Cannabinoid receptor 2 [25] = target: T1, Cannabinoid receptor 2; assay: Agonist activity at human CB2 receptor expressed in CHO cells assessed as inhibition of forskolin-induced cAMP production at 100 nM incubated for 90 mins in presence of CP55940 ligand by HitHunter assay relative to control; format: functional, cell-based; conditions: filed as agonist
Cannabinoid receptor 2 [26] = target: T1, Cannabinoid receptor 2; assay: Agonist activity at human CB2 receptor expressed in CHO cells assessed as inhibition of forskolin-induced cAMP production incubated for 90 mins in presence of CP55940 ligand by HitHunter assay; format: functional, cell-based
Cannabinoid receptor 2 [27] = target: T1, Cannabinoid receptor 2; assay: Agonist activity at human CB2 receptor expressed in CHO cells assessed as inhibition of forskolin-induced cAMP production at 100 nM incubated for 90 mins in presence of FM6b ligand by HitHunter assay relative to control; format: functional, cell-based; conditions: filed as agonist
Cannabinoid receptor 2 [28] = target: T1, Cannabinoid receptor 2; assay: Agonist activity at human CB2 receptor expressed in CHO cells assessed as inhibition of forskolin-induced cAMP production incubated for 90 mins in presence of FM6b ligand by HitHunter assay; format: functional, cell-based
BEND3 [29] = assay: Disruption of monolayer integrity in mouse BEND3 cells assessed as change in TEER modulation at 135 mins; format: functional, cell-based
[30] = Cytotoxicity against mouse BEND3 cells assessed as cell viability at 30 uM incubated for 24 hrs by WST-1 assay; format: functional; conditions: read-out: Activity
HepG2 [31] = assay: Anti-steatosis activity against oleate/palmitate-induced human HepG2 cells assessed as reduction of lipid accumulation incubated for 24 hrs; format: functional, cell-based; conditions: dose 0.1-25 µM
Cannabinoid receptor 1 [32] = target: T2, Cannabinoid receptor 1; assay: Agonist activity at human CB1 receptor expressed in CHO cells assessed as inhibition of forskolin-induced cAMP production at 1 nM incubated for 90 mins in presence of CP55940 ligand by HitHunter assay relative to control; format: functional, cell-based; conditions: filed as agonist
HepG2 [33] = assay: Cytotoxicity against human HepG2 cells at 0.1 to 100 uM incubated for 24 hrs by MTT assay; format: functional, cell-based; conditions: dose 0.1-100 µM
HepG2 [34] = assay: Anti-steatosis activity against oleate/palmitate-induced human HepG2 cells assessed as induction of lipolysis at 0.1 to 25 uM incubated for 24 hrs; format: functional, cell-based; conditions: dose 0.1-25 µM
BEND3 [35] = assay: Disruption of monolayer integrity in mouse BEND3 cells assessed as change in TEER modulation at 180 mins; format: functional, cell-based
BEND3 [36] = assay: Disruption of monolayer integrity in mouse BEND3 cells assessed as change in TEER modulation after 3 hrs; format: functional, cell-based
HepG2 [37] = assay: Induction of lipid accumulation in human HepG2 cells at 0.1 to 25 uM incubated for 24 hrs by Oil Red O staining based analysis; format: functional, cell-based; conditions: dose 0.1-25 µM

T2 sequence (P21554 whole entry): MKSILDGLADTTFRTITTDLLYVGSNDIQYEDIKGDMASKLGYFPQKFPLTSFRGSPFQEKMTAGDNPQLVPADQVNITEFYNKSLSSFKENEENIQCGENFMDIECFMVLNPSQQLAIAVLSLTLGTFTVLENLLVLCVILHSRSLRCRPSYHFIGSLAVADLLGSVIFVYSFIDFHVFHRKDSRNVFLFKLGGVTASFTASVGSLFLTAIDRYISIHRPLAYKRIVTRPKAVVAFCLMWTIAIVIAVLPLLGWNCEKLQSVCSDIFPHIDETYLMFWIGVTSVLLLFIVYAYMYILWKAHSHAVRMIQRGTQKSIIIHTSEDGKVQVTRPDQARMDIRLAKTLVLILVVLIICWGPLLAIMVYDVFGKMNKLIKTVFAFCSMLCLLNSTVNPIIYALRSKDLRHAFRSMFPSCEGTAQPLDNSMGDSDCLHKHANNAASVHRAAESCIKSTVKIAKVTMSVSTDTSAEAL
T1 sequence (P34972 whole entry): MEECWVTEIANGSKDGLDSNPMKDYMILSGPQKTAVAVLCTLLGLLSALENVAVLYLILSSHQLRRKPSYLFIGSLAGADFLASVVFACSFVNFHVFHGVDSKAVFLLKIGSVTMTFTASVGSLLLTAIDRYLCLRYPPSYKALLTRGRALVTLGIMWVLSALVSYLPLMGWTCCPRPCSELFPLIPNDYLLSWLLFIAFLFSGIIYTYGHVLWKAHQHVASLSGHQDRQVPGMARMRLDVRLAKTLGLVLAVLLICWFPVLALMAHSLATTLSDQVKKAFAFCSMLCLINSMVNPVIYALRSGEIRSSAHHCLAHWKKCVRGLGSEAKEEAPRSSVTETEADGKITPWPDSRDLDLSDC

Structure (SMILES) | IC50 (Cannabinoid receptor 2 [3]; read-out: pIC50 (converted)) [nM] | Activity (HepG2 [14]) | EC50 (Cannabinoid receptor 1 [16]) [nM] | EC50 (Cannabinoid receptor 1 [17]) [nM] | Activity (Cannabinoid receptor 2 [18]) | Emax (Cannabinoid receptor 1 [19]) [%] | Emax (Cannabinoid receptor 1 [20]) [%] | Emax (Cannabinoid receptor 1 [11]) [%] | Emax (Cannabinoid receptor 2 [13]; filed as agonist) [%] | Emax (Cannabinoid receptor 1 [21]) [%] | IC50 (Cannabinoid receptor 1 [22]) [nM] | EC50 (Cannabinoid receptor 1 [23]) [nM] | also measured
O=[N+]([O-])CC(c1ccccc1)c1c(-c2ccccc2)[nH]c2ccccc12 (configuration not stated) | > 10000 | inactive | – | – | – | – | – | – | – | – | – | – | EC50 (Cannabinoid receptor 2 [1]): 0.06 nM; Emax (Cannabinoid receptor 1 [2]): 85%; Activity (Cannabinoid receptor 2 [4]): No effect; Emax (Cannabinoid receptor 2 [5]): 105%; Activity (Cannabinoid receptor 1 [6]): Active; Activity (Cannabinoid receptor 2 [7]): Active; EC50 (Cannabinoid receptor 2 [8]): 170 nM; Activity (HepG2 [9]): inactive; Activity (Cannabinoid receptor 2 [10]): inactive; Emax (Cannabinoid receptor 1 [11]; filed as positive allosteric modulator): 140%; Emax (Cannabinoid receptor 2 [12]): 98%; Emax (Cannabinoid receptor 2 [13]): 29%; Activity (Cannabinoid receptor 1 [15]): Active
Cc1c(Br)cc(C(=O)NC2CCCCCC2)c(=O)n1CCCCCn1cc(CCCC(=O)NCC(c2ccccc2)c2c(-c3ccccc3)[nH]c3ccccc23)nn1 (configuration not stated) | > 10000 | – | 5.01 | 251 | Active | 122 | 24 | 0.12 | 44 | 130 | 15.8 | 1580 | –
Cc1c(C(=O)NN2CCCCC2)nn(-c2ccc(Cl)cc2Cl)c1-c1ccc(Cl)cc1 | – | – | – | – | – | – | – | – | – | – | – | – | Activity (HepG2 [24]): Active
Cc1c(Br)cc(C(=O)NC2CCCCCC2)c(=O)n1CCCn1cc(CCC(=O)NCC(c2ccccc2)c2c(-c3ccccc3)[nH]c3ccccc23)nn1 (configuration not stated) | – | – | 2 | 7.94 | Active | 61 | 26 | – | 130 | 150 | 31.6 | 2510 | IC50 (Cannabinoid receptor 2 [3]; read-out: IC50): 6.3 nM; Emax (Cannabinoid receptor 2 [25]): 123%; Emax (Cannabinoid receptor 1 [11]; filed as agonist): 329%; EC50 (Cannabinoid receptor 2 [26]): 10 nM; Emax (Cannabinoid receptor 2 [27]): 77%; EC50 (Cannabinoid receptor 2 [28]): 316 nM
Cc1c(Br)cc(C(=O)NC2CCCCCC2)c(=O)n1CCCCCn1cc(CCCCC(=O)NCC(c2ccccc2)c2c(-c3ccccc3)[nH]c3ccccc23)nn1 (configuration not stated) | 1000 | Active | 126 | 1580 | Active | – | 35 | 31 | 201 | 83 | 126 | 6.31 | Activity (BEND3 [29]): Active; viability at 30 µM [30]: > 75%; Activity (HepG2 [31]): Dose-dependent-effect; Emax (Cannabinoid receptor 1 [32]): 98%; Activity (HepG2 [33]): Active; Activity (HepG2 [34]): Active; Activity (BEND3 [35]): Active; Activity (BEND3 [36]): Active; Activity (HepG2 [37]): Active
